# Laboratory results published in ChEMBL document CHEMBL5104232, “Pyrazolines as potential anti-Alzheimer's agents: DFT, molecular docking, enzyme inhibition and pharmacokinetic studies” (RSC Med Chem, 2022).
# Experiments:
# [1] = Apparent permeability of compound across gastrointestinal tract mimic in PBS buffer incubated for 5 hrs by PAMPA assay based HPLC analysis; assay type: ADME
# [2] = target: Acetylcholinesterase (Homo sapiens, UniProt P22303)
# Description: Inhibition of human acetylcholinesterase using acetylthiocholine iodide as substrate incubated for 15 mins by Ellman's method
# [3] = Apparent permeability of compound across gastrointestinal tract mimic in PBS buffer as membrane retention incubated for 5 hrs by PAMPA assay based HPLC analysis; assay type: ADME
# Acetylcholinesterase, sequence (P22303 whole entry): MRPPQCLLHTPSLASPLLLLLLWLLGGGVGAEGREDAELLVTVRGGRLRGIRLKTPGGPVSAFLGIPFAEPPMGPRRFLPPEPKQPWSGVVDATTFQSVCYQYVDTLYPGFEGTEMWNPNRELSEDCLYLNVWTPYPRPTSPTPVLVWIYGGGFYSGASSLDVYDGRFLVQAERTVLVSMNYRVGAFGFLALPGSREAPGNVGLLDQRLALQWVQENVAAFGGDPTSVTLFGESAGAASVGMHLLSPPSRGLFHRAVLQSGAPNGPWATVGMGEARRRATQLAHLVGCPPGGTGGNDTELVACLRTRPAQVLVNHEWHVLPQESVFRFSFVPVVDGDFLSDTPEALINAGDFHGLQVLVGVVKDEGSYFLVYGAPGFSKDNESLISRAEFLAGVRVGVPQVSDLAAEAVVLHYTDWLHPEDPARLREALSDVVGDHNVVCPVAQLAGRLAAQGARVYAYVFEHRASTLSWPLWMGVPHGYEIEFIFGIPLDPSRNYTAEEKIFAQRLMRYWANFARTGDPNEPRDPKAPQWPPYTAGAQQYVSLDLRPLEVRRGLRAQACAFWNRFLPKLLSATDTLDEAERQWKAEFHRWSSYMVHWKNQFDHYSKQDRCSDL
SMILES,Papp at 5 h [1] [×10⁻⁶ cm/s],IC50 [2] [µM],Activity [3] [%]
COc1ccc(C2CC(c3ccc(-c4ccccc4)cc3)=NN2C(C)=O)cc1OC (centres undefined),9.02,1430,9.2
CC(=O)N1N=C(c2ccc(-c3ccccc3)cc2)CC1c1ccccc1 (centres undefined),9.15,1330,30.7
CC(=O)N1N=C(c2ccc(-c3ccccc3)cc2)CC1c1ccc(C(=O)O)cc1 (centres undefined),2.13,1540,15
CC(=O)N1N=C(c2ccc(-c3ccccc3)cc2)CC1c1cccc([N+](=O)[O-])c1 (centres undefined),9.42,1030,27.7
CC(=O)N1N=C(c2ccc(Br)cc2)CC1c1ccc(-c2ccccc2)cc1 (centres undefined),4.9,0.903,49
CC(=O)N1N=C(c2ccc(-c3ccccc3)cc2)CC1c1ccccc1[N+](=O)[O-] (centres undefined),6.9,0.64,47.6
CC(=O)N1N=C(c2ccc(-c3ccccc3)cc2)CC1c1ccc([N+](=O)[O-])cc1 (centres undefined),7.85,1560,32.6
COc1ccc(C2=NN(C(C)=O)C(c3ccc(-c4ccccc4)cc3)C2)c(OC)c1 (centres undefined),1,1130,18.4
COc1cc(C2=NN(C(C)=O)C(c3ccc(-c4ccccc4)cc3)C2)cc(OC)c1OC (centres undefined),7.89,1950,9.5
CC(=O)N1N=C(c2ccc3c(c2)OCO3)CC1c1ccc(-c2ccccc2)cc1 (centres undefined),8.44,0.913,17
CC(=O)N1N=C(c2cccc3ccccc23)CC1c1ccc(-c2ccccc2)cc1 (centres undefined),5.47,1010,35.8
CC(=O)N1N=C(c2ccc3ccccc3c2)CC1c1ccc(-c2ccccc2)cc1 (centres undefined),4.43,0.068,56.9
CC(=O)N1N=C(c2ccc(-c3ccccc3)cc2)CC1c1ccc2c(c1)OCO2 (centres undefined),8.75,0.988,33.7
CC(=O)N1N=C(c2ccc(C)cc2)CC1c1ccc(-c2ccccc2)cc1 (centres undefined),4.27,0.845,44.3
CC(=O)N1N=C(c2ccccc2[N+](=O)[O-])CC1c1ccc(-c2ccccc2)cc1 (centres undefined),1.22,0.052,6.6
COc1ccc(OC)c(C2=NN(C(C)=O)C(c3ccc(-c4ccccc4)cc3)C2)c1 (centres undefined),6.87,1700,36.2
CC(=O)N1N=C(c2ccc(-c3ccccc3)cc2)CC1c1ccc2ccccc2c1 (centres undefined),3.36,0.799,59.7
COc1ccc(OC)c(C2CC(c3ccc(-c4ccccc4)cc3)=NN2C(C)=O)c1 (centres undefined),6.94,1420,38.3
